From PubChem BioAssay (NCI)
Several values for one entry are separate records, joined by “and”; a condition that tells them apart may be missing. Equal values may be shown once.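 Cultured in 96-well plates, cells were exposed to test compound for 48 hours across five concentrations. GI50: concentration for 50% inhibition of growth. TGI: concentration producing complete growth inhibition.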

How the values were obtained:
Assay in all cases: NCI anticancer screen, dose series, 48 h
[1] = system: HCT-15 colon
[2] = system: KM20L2 colon
[3] = system: DMS 273 small cell lung
[4] = system: MALME-3M melanoma
[5] = system: M19-MEL melanoma
[6] = system: M14 melanoma
[7] = system: MDA-MB-231 breast
[8] = system: RPMI-8226 leukemia
[9] = system: DMS 114 small cell lung
[10] = system: NCI/ADR-RES ovarian

Row | Compound | GI50 [1] | TGI [1] | TGI [2] | GI50 [3] | TGI [3] | GI50 [4] | TGI [4] | GI50 [5] | TGI [5] | GI50 [6] | TGI [6] | GI50 [7] | TGI [7] | GI50 [8] | TGI [8] | TGI [9] | GI50 [10] | TGI [10]
1 | C=C(C)C(=O)NC(N)=NC#N | 103 µM | 243 µM | 232 µM | 130 µM | 270 µM | 80.8 µM | 63.2 µM and 214 µM | 42.8 µM | 50.2 µM and 166 µM | 21 µM | 47.8 µM and 131 µM | 161 µM | 301 µM | 24.7 µM | 44.9 µM and 120 µM | > 82.7 µM and 136 µM | 125 µM | > 83.8 µM and 267 µM
2 | CCOC(=O)C1Cc2c(ccc(OC)c2OC)C(=O)C1N (stereo not given) | – | > 100 µM | > 100 µM | – | > 100 µM | – | > 100 µM | – | > 100 µM | – | > 100 µM | – | – | – | > 100 µM | > 100 µM | – | –
3 | CCOC(=O)C12CCCC1(O)N(NC(=O)c1cccc(Cl)c1)C(C)=C2C(=O)OC (stereo not given) | – | > 100 µM | > 100 µM | – | > 100 µM | – | > 100 µM | – | > 100 µM | – | > 100 µM | – | – | – | > 100 µM | > 100 µM | – | –
4 | CCCC(OCC)(OCC)OCC | – | > 100 µM | > 100 µM | – | > 100 µM | – | > 100 µM | – | > 100 µM | – | > 100 µM | – | – | – | > 100 µM | > 100 µM | – | –
5 | CSc1nc(NC2OCC(OC(C)=O)C(OC(C)=O)C2OC(C)=O)c(N=CC=Nc2c(NC3OCC(OC(C)=O)C(OC(C)=O)C3OC(C)=O)nc(SC)n(C)c2=O)c(=O)n1C (stereo not given) | – | > 100 µM | > 100 µM | – | > 100 µM | – | > 100 µM | – | > 100 µM | – | > 100 µM | – | – | – | > 100 µM | > 100 µM | – | –
